Measurements: US20230151025A1, “SUBSTITUTED THIAZOLOPYRIDINES, SALTS THEREOF AND THEIR USE AS HERBICIDALLY ACTIVE SUBSTANCES” (Bayer Aktiengesellschaft, priority 2020, published 2023)

Key:
Assay type in all cases: in vivo
[1] = tested on: Abutilon theophrasti (ABUTH); assay: Herbicidal post-emergence action (B), 1280 g/ha; conditions: rated visually after about 3 weeks vs untreated controls
Procedure, shortened: (§1)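 Compounds formulated as wettable powder or emulsion concentrate, with 0.5% additive, sprayed at 600 l/ha onto one-leaf-stage plants grown in sandy loam for 2 to 3 weeks. Damage rated visually against untreated plants roughly 3 weeks later; 0% = like control, 100% = plants died.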

[2] = tested on: Alopecurus myosuroides (ALOMY); assay: Herbicidal post-emergence action (B), 1280 g/ha; conditions: rated visually after about 3 weeks vs untreated controls
Procedure, shortened: as §1

[3] = tested on: Amaranthus retroflexus (AMARE); assay: Herbicidal post-emergence action (B), 1280 g/ha; conditions: rated visually after about 3 weeks vs untreated controls
Procedure, shortened: as §1

[4] = tested on: Digitaria sanguinalis (DIGSA); assay: Herbicidal post-emergence action (B), 1280 g/ha; conditions: rated visually after about 3 weeks vs untreated controls
Procedure, shortened: as §1

[5] = tested on: Echinochloa crus-galli (ECHCG); assay: Herbicidal post-emergence action (B), 1280 g/ha; conditions: rated visually after about 3 weeks vs untreated controls
Procedure, shortened: as §1

[6] = tested on: Kochia scoparia (KCHSC; Bassia scoparia); assay: Herbicidal post-emergence action (B), 1280 g/ha
Procedure, shortened: as §1

[7] = tested on: Lolium rigidum (LOLRI); assay: Herbicidal post-emergence action (B), 1280 g/ha; conditions: one-leaf stage, rated after about 3 weeks vs untreated controls, 100% activity = the plants have died, 0% = like control plants
Procedure, shortened: as §1

[8] = tested on: Poa annua (POAAN); assay: Herbicidal post-emergence action (B), 1280 g/ha; conditions: rated visually after about 3 weeks vs untreated controls
Procedure, shortened: as §1

[9] = tested on: Setaria viridis (SETVI); assay: Herbicidal post-emergence action (B), 1280 g/ha; conditions: rated visually after about 3 weeks vs untreated controls
Procedure, shortened: as §1

[10] = tested on: Stellaria media (STEME); assay: Herbicidal post-emergence action (B), 1280 g/ha
Procedure, shortened: as §1

[11] = tested on: Veronica persica (VERPE); assay: Herbicidal post-emergence action (B), 1280 g/ha
Procedure, shortened: as §1

[12] = tested on: Alopecurus myosuroides (ALOMY); assay: Herbicidal pre-emergence action (C), 320 g/ha; conditions: ca. 3 weeks
Procedure, shortened: (§2)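 Seeds sown in sandy loam; WP or EC formulations sprayed on covering soil pre-emergence at 320 g/ha in 600 l water/ha with 0.5% additive. Greenhouse culture; damage scored visually after ca. 3 weeks versus untreated controls (0% = as control, 100% = plants dead).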

[13] = tested on: Amaranthus retroflexus (AMARE); assay: Herbicidal pre-emergence action (C), 320 g/ha; conditions: ca. 3 weeks
Procedure, shortened: as §2

[14] = tested on: Echinochloa crus-galli (ECHCG); assay: Herbicidal pre-emergence action (C), 320 g/ha; conditions: ca. 3 weeks
Procedure, shortened: as §2

[15] = tested on: Lolium rigidum (LOLRI); assay: Herbicidal pre-emergence action (C), 320 g/ha; conditions: ca. 3 weeks
Procedure, shortened: as §2

[16] = tested on: Setaria viridis (SETVI); assay: Herbicidal pre-emergence action (C), 320 g/ha; conditions: ca. 3 weeks
Procedure, shortened: as §2

[17] = tested on: Veronica persica (VERPE); assay: Herbicidal pre-emergence action (C), 320 g/ha; conditions: ca. 3 weeks
Procedure, shortened: as §2

[18] = tested on: Alopecurus myosuroides (ALOMY); assay: Herbicidal post-emergence action (D), 320 g/ha; conditions: ca. 3 weeks
Procedure, shortened: (§3)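 Weeds sown in sandy loam and greenhouse-grown for 2 to 3 weeks, then sprayed at single-leaf stage with WP or EC formulations in water plus 0.5% additive at 600 l water/ha. After ca. 3 weeks, injury scored visually versus untreated controls: 0% = as control, 100% = plants dead.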

[19] = tested on: Amaranthus retroflexus (AMARE); assay: Herbicidal post-emergence action (D), 320 g/ha; conditions: ca. 3 weeks
Procedure, shortened: as §3

[20] = tested on: Echinochloa crus-galli (ECHCG); assay: Herbicidal post-emergence action (D), 320 g/ha; conditions: ca. 3 weeks
Procedure, shortened: as §3

[21] = tested on: Polygonum convolvulus (POLCO); assay: Herbicidal post-emergence action (D), 320 g/ha; conditions: ca. 3 weeks
Procedure, shortened: as §3

[22] = tested on: Veronica persica (VERPE); assay: Herbicidal post-emergence action (D), 320 g/ha; conditions: ca. 3 weeks
Procedure, shortened: as §3

Compound: Cc1cc2scnc2nc1-c1ccccc1 [Example I-041]
- herbicidal activity ABUTH [1]: 100%
- herbicidal activity ALOMY [2]: 100%
- herbicidal activity AMARE [3]: 100%
- herbicidal activity DIGSA [4]: 100%
- herbicidal activity ECHCG [5]: 100%
- herbicidal effect KCHSC [6]: 100%
- LOLRI, activity rated visually (%) [7]: 100%
- herbicidal activity POAAN [8]: 100%
- herbicidal activity SETVI [9]: 100%
- herbicidal effect STEME [10]: 100%
- herbicidal effect VERPE [11]: 100%
- herbicidal effect ALOMY [12]: 100%
- herbicidal effect AMARE [13]: 90%
- herbicidal effect ECHCG [14]: 100%
- herbicidal effect LOLRI [15]: 100%
- herbicidal effect SETVI [16]: 100%
- herbicidal effect VERPE [17]: 90%
- herbicidal effect ALOMY [18]: 90%
- herbicidal effect AMARE [19]: 90%
- herbicidal effect ECHCG [20]: 100%
- herbicidal effect POLCO [21]: 90%
- herbicidal effect VERPE [22]: 90%

Compound: Fc1ccccc1-c1nc2ncsc2cc1I [Example I-188]
- herbicidal activity AMARE [3]: 100%
- herbicidal activity ECHCG [5]: 90%
- herbicidal effect KCHSC [6]: 90%
- LOLRI, activity rated visually (%) [7]: 90%
- herbicidal activity POAAN [8]: 90%
- herbicidal activity SETVI [9]: 90%
- herbicidal effect STEME [10]: 90%
- herbicidal effect ALOMY [12]: 100%
- herbicidal effect AMARE [13]: 90%
- herbicidal effect ECHCG [14]: 100%
- herbicidal effect LOLRI [15]: 100%
- herbicidal effect SETVI [16]: 100%
- herbicidal effect VERPE [17]: 90%
- herbicidal effect ALOMY [18]: 90%
- herbicidal effect AMARE [19]: 90%
- herbicidal effect ECHCG [20]: 100%
- herbicidal effect POLCO [21]: 80%
- herbicidal effect VERPE [22]: 90%

Compound: CCc1cc2scnc2nc1-c1ccccc1 [Example I-051]
- herbicidal activity ABUTH [1]: 90%
- herbicidal activity ALOMY [2]: 100%
- herbicidal activity AMARE [3]: 100%
- herbicidal activity DIGSA [4]: 100%
- herbicidal activity ECHCG [5]: 100%
- herbicidal effect KCHSC [6]: 90%
- LOLRI, activity rated visually (%) [7]: 100%
- herbicidal activity POAAN [8]: 100%
- herbicidal activity SETVI [9]: 100%
- herbicidal effect STEME [10]: 100%
- herbicidal effect VERPE [11]: 100%
- herbicidal effect ALOMY [12]: 100%
- herbicidal effect AMARE [13]: 90%
- herbicidal effect ECHCG [14]: 100%
- herbicidal effect LOLRI [15]: 100%
- herbicidal effect SETVI [16]: 100%
- herbicidal effect VERPE [17]: 90%
- herbicidal effect ALOMY [18]: 90%
- herbicidal effect AMARE [19]: 90%
- herbicidal effect ECHCG [20]: 90%
- herbicidal effect POLCO [21]: 90%
- herbicidal effect VERPE [22]: 90%

Compound: Cc1cc2scnc2nc1-c1ccccc1Cl [Example I-045]
- herbicidal activity ABUTH [1]: 90%
- herbicidal activity ALOMY [2]: 100%
- herbicidal activity AMARE [3]: 90%
- herbicidal activity ECHCG [5]: 100%
- herbicidal effect KCHSC [6]: 90%
- LOLRI, activity rated visually (%) [7]: 90%
- herbicidal activity POAAN [8]: 100%
- herbicidal activity SETVI [9]: 100%
- herbicidal effect STEME [10]: 100%
- herbicidal effect VERPE [11]: 90%
- herbicidal effect ALOMY [12]: 100%
- herbicidal effect AMARE [13]: 90%
- herbicidal effect ECHCG [14]: 100%
- herbicidal effect LOLRI [15]: 100%
- herbicidal effect SETVI [16]: 100%
- herbicidal effect VERPE [17]: 90%
- herbicidal effect ALOMY [18]: 90%
- herbicidal effect AMARE [19]: 100%
- herbicidal effect ECHCG [20]: 90%
- herbicidal effect POLCO [21]: 90%
- herbicidal effect VERPE [22]: 90%
